Drawing on PubChem BioAssay AID292 (DTP/NCI, 2004), this text covers T/C for 19 compounds.

Each structure is given as a SMILES string. Several values for one entry are separate records, joined by “and”; a condition that tells them apart may be missing. Equal entries are not always repeated. Inconclusive results and toxic doses are left out.

In this test the test system is B6C3F1 mice, ip Sarcoma M5076, median survival T/C. Description: NCI In Vivo Anticancer Drug Screen. Data for tumor model Sarcoma M5076 (intraperitoneal) in B6C3F1 mice. Particulars: endpoint: median survival time, higher = longer survival. As to the method:
The antitumor activity of compounds was measured in mice bearing transplantable tumors. Survival or tumor size were measured and the results are expressed as the measurement made in the treated group (T) divided by the measurement made in the vehicle treated control group (C). The tumor model used in this assay is Sarcoma M5076 (intraperitoneal) in B6C3F1 mice

Setting [1] is: dose: 25.0 mg/kg/injection, schedule: Q04DX004 (ip), vehicle: saline with Tween-80.
Setting [2] is: dose: 50.0 mg/kg/injection, schedule: Q04DX004 (ip), vehicle: saline with Tween-80.
[3] abbreviates: dose: 100.0 mg/kg/injection, schedule: Q04DX004 (ip), vehicle: saline with Tween-80.
The mark [4] stands for this setting: dose: 200.0 mg/kg/injection, schedule: Q04DX004 (ip), vehicle: saline with Tween-80.
[5] abbreviates: dose: 12.5 mg/kg/injection, schedule: Q04DX004 (ip), vehicle: Klucel (hydroxypropylcellulose) (HPC).
Setting [6] is: dose: 100.0 mg/kg/injection, schedule: Q04DX004 (ip), vehicle: Klucel (hydroxypropylcellulose) (HPC).
Setting [7] is: dose: 25.0 mg/kg/injection, schedule: Q04DX004 (ip), vehicle: suspension in saline.
The mark [8] stands for this setting: dose: 50.0 mg/kg/injection, schedule: Q04DX004 (ip), vehicle: suspension in saline.
The mark [9] stands for this setting: dose: 400.0 mg/kg/injection, schedule: Q04DX004 (ip), vehicle: saline with Tween-80.
The mark [10] stands for this setting: dose: 50.0 mg/kg/injection, schedule: Q04DX004 (ip), vehicle: Klucel (hydroxypropylcellulose) (HPC).
Setting [11] is: dose: 200.0 mg/kg/injection, schedule: Q04DX004 (ip), vehicle: Klucel (hydroxypropylcellulose) (HPC).
The mark [12] stands for this setting: dose: 400.0 mg/kg/injection, schedule: Q04DX004 (ip), vehicle: Klucel (hydroxypropylcellulose) (HPC).

Regarding `C/C([O-])=c1\c(C)nn2ccc[n+]12`, the T/C runs as follows: under setting [1], 100 % of control; under setting [2], 106 % of control; under setting [3], 103 % of control; under setting [4], 94 % of control.
On to `COc1ccc(C(N)=O)cc1N=NN(C)C`, for which the T/C under setting [5] is 118 % of control and 121 % of control; the T/C under setting [6] is 154 % of control and 179 % of control.
Take `Nc1ccn(C2OC(CO)C(O)C2O)c(=O)n1` (centres undefined): the T/C is 150 % of control (dose: 12.5 mg/kg/injection, schedule: Q01DX009 (ip), vehicle: saline) and 162 % of control (dose: 25.0 mg/kg/injection, schedule: Q01DX009 (ip), vehicle: saline).
Consider `CC(C)c1ccc(C2NC(=S)NC(=O)C2C#N)cc1` (centres undefined), for which the T/C (dose: 50.0 mg/kg/injection, schedule: Q04DX004 (ip), vehicle: saline) is 100 % of control; the T/C (dose: 100.0 mg/kg/injection, schedule: Q04DX004 (ip), vehicle: saline) is 97 % of control; the T/C (dose: 200.0 mg/kg/injection, schedule: Q04DX004 (ip), vehicle: saline) is 88 % of control.
On to `COc1cccc(-n2cc[n+](C)c2/C=N/O)c1`, for which the T/C runs as follows: (dose: 12.5 mg/kg/injection, schedule: Q04DX004 (ip), vehicle: saline with Tween-80) 108 % of control; under setting [1], 101 % of control; under setting [2], 108 % of control; under setting [3], 100 % of control.
As to `CN(C)[C@@H]1C(=O)C(C(N)=O)=C(O)[C@@]2(O)C(=O)C3=C(O)c4c(O)ccc(Cl)c4[C@@](C)(O)[C@H]3C[C@@H]12`, the T/C is, setting by setting: under setting [7], 86 % of control; under setting [8], 96 % of control; (dose: 100.0 mg/kg/injection, schedule: Q04DX004 (ip), vehicle: suspension in saline) 91 % of control.
On to `O=C(Nc1ccccc1)c1c(O)[nH]c(=O)[nH]c1=O`, for which the T/C runs as follows: under setting [1], 102 % of control and 108 % of control; under setting [2], 98 % of control and 106 % of control and 110 % of control; under setting [3], 96 % of control and 111 % of control and 112 % of control; under setting [4], 109 % of control and 111 % of control and 119 % of control; under setting [9], 114 % of control.
In the case of `Nc1cc(=O)n(Cc2ccco2)c(=S)[nH]1`, the T/C reads like this: under setting [2], 106 % of control; under setting [3], 97 % of control; under setting [4], 106 % of control; under setting [9], 107 % of control; (dose: 800.0 mg/kg/injection, schedule: Q04DX004 (ip), vehicle: saline with Tween-80) 97 % of control.
For the compound `CN(C)CCNC1=CC(=O)c2ccccc2C1=O`, the T/C reads like this: (dose: 50.0 mg/kg/injection, schedule: Q04DX004 (ip), vehicle: distilled water + Tween-80) 101 % of control; (dose: 100.0 mg/kg/injection, schedule: Q04DX004 (ip), vehicle: distilled water + Tween-80) 101 % of control.
Consider `O=C1C(=O)c2cccnc2-c2ncccc21`, for which the T/C was 101 % of control (dose: 0.38 mg/kg/injection, schedule: Q04DX004 (ip), vehicle: Klucel (hydroxypropylcellulose) (HPC)); 109 % of control (dose: 0.75 mg/kg/injection, schedule: Q04DX004 (ip), vehicle: Klucel (hydroxypropylcellulose) (HPC)); 104 % of control (dose: 1.5 mg/kg/injection, schedule: Q04DX004 (ip), vehicle: Klucel (hydroxypropylcellulose) (HPC)); 105 % of control (dose: 3.0 mg/kg/injection, schedule: Q04DX004 (ip), vehicle: Klucel (hydroxypropylcellulose) (HPC)); 110 % of control (dose: 6.0 mg/kg/injection, schedule: Q04DX004 (ip), vehicle: Klucel (hydroxypropylcellulose) (HPC)).
In the case of `O=C1CN2CCN3CC(=O)NC(=O)[C@H]3[C@H]2C(=O)N1`, the T/C (dose: 28.13 mg/kg/injection, schedule: Q04DX004 (ip), vehicle: saline with Tween-80) was 101 % of control; the T/C (dose: 56.25 mg/kg/injection, schedule: Q04DX004 (ip), vehicle: saline with Tween-80) was 98 % of control; the T/C (dose: 112.5 mg/kg/injection, schedule: Q04DX004 (ip), vehicle: saline with Tween-80) is 93 % of control; the T/C (dose: 225.0 mg/kg/injection, schedule: Q04DX004 (ip), vehicle: saline with Tween-80) is 92 % of control; the T/C (dose: 450.0 mg/kg/injection, schedule: Q04DX004 (ip), vehicle: saline with Tween-80) was 91 % of control.
Turning to `Cc1nc2ccccc2c(N)c1-c1cc(C)c2c(C)nc3ccccc3c2n1`, the T/C was 97 % of control (dose: 6.25 mg/kg/injection, schedule: Q04DX004 (ip), vehicle: Klucel (hydroxypropylcellulose) (HPC)); 91 % of control under setting [5]; 90 % of control and 94 % of control and 101 % of control (dose: 25.0 mg/kg/injection, schedule: Q04DX004 (ip), vehicle: Klucel (hydroxypropylcellulose) (HPC)); 92 % of control and 98 % of control under setting [10]; 96 % of control and 100 % of control under setting [6]; 99 % of control under setting [11]. The T/C under setting [12] was 106 % of control.
As for `Nc1nncs1`, the T/C reads like this: under setting [3], 111 % of control; (dose: 100.0 mg/kg/injection, schedule: Q04DX005 (ip), vehicle: saline with Tween-80) 112 % of control; (dose: 100.0 mg/kg/injection, schedule: Q04DX005 (ip), vehicle: saline) 114 % of control and 116 % of control; under setting [4], 112 % of control; (dose: 200.0 mg/kg/injection, schedule: Q04DX005 (ip), vehicle: saline with Tween-80) 112 % of control; (dose: 200.0 mg/kg/injection, schedule: Q04DX005 (ip), vehicle: saline) 109 % of control and 121 % of control. For the same compound, the T/C reads like this: under setting [9], 121 % of control; (dose: 400.0 mg/kg/injection, schedule: Q04DX005 (ip), vehicle: saline) 95 % of control; (dose: 800.0 mg/kg/injection, schedule: Q04DX005 (ip), vehicle: saline) 151 % of control.
For `CN(C)CCCN=c1c2ccccc2n(C)c2[nH]c(=O)n(C)c(=O)c12`, the T/C was 101 % of control (dose: 7.5 mg/kg/injection, schedule: Q04DX004 (ip), vehicle: saline); 99 % of control (dose: 15.0 mg/kg/injection, schedule: Q04DX004 (ip), vehicle: saline); 102 % of control (dose: 30.0 mg/kg/injection, schedule: Q04DX004 (ip), vehicle: saline).
In the case of `CC1CC(Nc2ccc(NC3=CC(=O)OC(C)C3)cc2)=CC(=O)O1` (centres undefined), the T/C (dose: 37.5 mg/kg/injection, schedule: Q04DX004 (ip), vehicle: saline with Tween-80) is 99 % of control; the T/C (dose: 75.0 mg/kg/injection, schedule: Q04DX004 (ip), vehicle: saline with Tween-80) was 97 % of control; the T/C (dose: 150.0 mg/kg/injection, schedule: Q04DX004 (ip), vehicle: saline with Tween-80) was 94 % of control; the T/C (dose: 300.0 mg/kg/injection, schedule: Q04DX004 (ip), vehicle: saline with Tween-80) is 90 % of control.
For `N=C(N)Sc1ccccn1`, the T/C is 97 % of control (dose: 62.5 mg/kg/injection, schedule: Q04DX004 (ip), vehicle: saline); 101 % of control (dose: 125.0 mg/kg/injection, schedule: Q04DX004 (ip), vehicle: saline); 90 % of control (dose: 250.0 mg/kg/injection, schedule: Q04DX004 (ip), vehicle: saline).
Consider `Cn1c([N+](=O)[O-])cnc1CSc1ccc(C#N)cc1`, for which the T/C by setting is: under setting [10], 96 % of control; under setting [6], 93 % of control; under setting [11], 102 % of control; under setting [12], 94 % of control; (dose: 800.0 mg/kg/injection, schedule: Q04DX004 (ip), vehicle: Klucel (hydroxypropylcellulose) (HPC)) 91 % of control.
Turning to `O=[N+]([O-])c1c(O)c(CNCCCO)cc(CNCCCO)c1O`, the T/C (dose: 6.25 mg/kg/injection, schedule: Q04DX004 (ip), vehicle: suspension in saline) is 98 % of control; the T/C (dose: 12.5 mg/kg/injection, schedule: Q04DX004 (ip), vehicle: suspension in saline) is 99 % of control; the T/C under setting [7] is 101 % of control; the T/C under setting [8] was 118 % of control.
As to `O=C1NCC(Br)C(=O)N1` (centres undefined), the T/C was 95 % of control (dose: 50.0 mg/kg/injection, schedule: Q04DX004 (ip), vehicle: saline + Tween-80 + alcohol); 97 % of control (dose: 100.0 mg/kg/injection, schedule: Q04DX004 (ip), vehicle: saline + Tween-80 + alcohol); 94 % of control (dose: 200.0 mg/kg/injection, schedule: Q04DX004 (ip), vehicle: saline + Tween-80 + alcohol); 120 % of control (dose: 400.0 mg/kg/injection, schedule: Q04DX004 (ip), vehicle: saline + Tween-80 + alcohol).
